{"source": "patent US20160058739A1", "about": "“USE OF PIDOTIMOD TO TREAT INFLAMMATORY BOWEL DISEASE” (POLICHEM SA, priority 2013, published 2016)", "test_system": "patients with chronic diarrhoea caused by Crohn's disease or ulcerative colitis", "assay": "open-label pilot trial in patients with chronic diarrhoea caused by Crohn's disease or ulcerative colitis", "format": "in vivo", "description": "Three patients with chronic diarrhoea caused by Crohn's disease without resection, aged 44 to 63 years (2 female) and three patients with chronic diarrhoea caused by ulcerative colitis, aged 50 to 65 years (1 female) were enrolled in an open-label pilot trial to receive twice a day the composition as per the Example 4 for 12 weeks.", "key": {"[1]": {"details": "composition as per Example 4 twice a day for 12 weeks, 3 Crohn's disease and 3 ulcerative colitis patients"}}, "note": "Non-standard residues stand in square brackets, D forms with d. Residues, ends and D or L forms follow the SMILES beside them. pGlu = O=C1CC[C@@H](C(=O)O)N1; Thz = O=C(O)[C@@H]1CSCN1"}
{"compound": "O=C1CC[C@@H](C(=O)N2CSC[C@H]2C(=O)O)N1", "note": "[pidotimod, (4R)-3-(5-oxo-L-prolyl)-1,3-thiazolidine-4-carboxylic acid] ([pGlu]-[Thz]-OH)", "values": [{"measurement": "role in inflammatory bowel disease (IBD) in controlling signs and symptoms such as chronic diarrhea", "setting": "administered twice daily for 12 weeks, study conclusion", "result": "beneficial role"}, {"measurement": "frequency of stools", "setting": "composition as per Example 4 (oral solution, 5.10% pidotimod) twice a day for 12 weeks, 3 Crohn's disease and 3 ulcerative colitis patients", "result": "significantly decreased"}, {"measurement": "bowel transit time", "setting": "[1]", "result": "prolonged"}, {"measurement": "stool consistency", "setting": "[1]", "result": "became more solid"}, {"measurement": "weight of stools", "setting": "[1]", "result": "significantly decreased"}]}
